# Data: patent EP0650721B1 (HANMI PHARM. IND. CO., LTD., priority 1993, dated 1995)
# Assay: Membrane permeation property of the cosurfactant in soft capsules over storage at room temperature (cosurfactant content by gas chromatography)
# Assay type: physicochemical
# Conditions: after 50 days
# Experimental: The content of the cosurfactant in each soft capsule preparation was analyzed by gas chromatography. The components and their constitutional ratios in the compositions used in this experiment are given in the following Table 1 and the experiment results are given in the following Table 2.
structure (smiles),measurement,value
"CO[C@H]1CO[C@H]2[C@@H]1OC[C@H]2OC [dimethylisosorbide, 1,4:3,6-dianhydro-2,5-dimethyl-D-glucitol]",change in content of the cosurfactant in the soft capsule,does not change in its content even after 50 days
